Experimental findings from ChEMBL document CHEMBL1135088, “Minimal structural requirements for agonist activity of PAR-2 activating peptides” (Bioorg Med Chem Lett, 2002) are described below.

Assay [1] is filed under the species Rattus norvegicus. Kind of assay: In vitro vasorelaxant activity in male wistar rat thoracic aorta by classical rat aorta relaxation assay; n.a.=not active up to a concentration of 3e-4 M. The format is functional.
The species entered for assay [2] is Rattus norvegicus. Kind of assay: In vitro vasorelaxant activity in male wistar rat thoracic aorta by classical rat aorta relaxation assay. The format is functional.

Non-standard residues stand in square brackets, D forms with d. Residues, ends and D or L forms follow the SMILES beside them. *: point of attachment. Arg(NO2) = N=C(NCCC[C@H](N)C(=O)O)N[N+](=O)[O-]; Bz = O=C(c1ccccc1)*

Regarding `CC(=O)N[C@@H](CCC/N=C(\N)N[N+](=O)[O-])C(=O)N[C@@H](CC(C)C)C(N)=O` (Ac-[Arg(NO2)]-Leu-NH2), the half-maximal effective concentration (EC50) result in the assay listed under Rattus norvegicus [1] was “Not Active”.

For the molecule `COc1ccc(C(=O)N[C@@H](CCC/N=C(\N)N[N+](=O)[O-])C(=O)N[C@@H](CC(C)C)C(N)=O)cc1`, the EC50 in the assay filed under Rattus norvegicus [2] stood at 69 µM.

As for `CC(C)C[C@H](NC(=O)[C@H](CCC/N=C(\N)N[N+](=O)[O-])NC(=O)c1ccc(C#N)cc1)C(N)=O`, the concentration for a half-maximal effect (EC50) result in the assay filed under Rattus norvegicus [1] was “Not Active”.

As for `CC(C)C[C@H](NC(=O)[C@H](CCC/N=C(\N)N[N+](=O)[O-])NC(=O)C1CCCCC1)C(N)=O`, the concentration giving a half-maximal response (EC50) result in the assay filed under Rattus norvegicus [1] is “Not Active”.

In the assay listed under Rattus norvegicus [2], `CC[C@H](C)[C@H](NC(=O)[C@H](CC(C)C)NC(=O)[C@@H](N)CO)C(=O)NCC(=O)N[C@@H](CCCNC(=N)N)C(=O)N[C@@H](CC(C)C)C(N)=O` (H-SLIGRL-NH2) registered a 50% effective concentration (EC50) of 4 µM.

For the molecule `CC(C)C[C@H](NC(=O)[C@H](CCC/N=C(\N)N[N+](=O)[O-])NC(=O)c1ccc(C(F)(F)F)cc1)C(N)=O`, the half-maximal effective concentration (EC50) entry in the assay filed under Rattus norvegicus [1] is listed as “Not Active”.

Turning to `CC(C)C[C@H](NC(=O)[C@H](CCC/N=C(\N)N[N+](=O)[O-])NC(=O)c1ccccc1)C(N)=O` (Bz-[Arg(NO2)]-Leu-NH2), a half-maximal response in the assay listed under Rattus norvegicus [2] (EC50) required 400 µM.

As to `CC(C)C[C@H](NC(=O)[C@H](CCC/N=C(\N)N[N+](=O)[O-])NC(=O)c1ccc(Cl)cc1)C(N)=O`, in the assay filed under Rattus norvegicus [1], the 50% effective concentration (EC50) entry is given as “Not Active”.

Consider `CC(C)C[C@H](NC(=O)[C@H](CCC/N=C(\N)N[N+](=O)[O-])NS(=O)(=O)c1ccccc1)C(N)=O`, for which the EC50 entry in the assay listed under Rattus norvegicus [1] was “Not Active”.

Consider `CC(C)C[C@H](NC(=O)[C@H](CCC/N=C(\N)N[N+](=O)[O-])NC(=O)c1ccc([N+](=O)[O-])cc1)C(N)=O`, for which the EC50 result in the assay listed under Rattus norvegicus [1] is “Not Active”.

Consider `CSc1ccc(C(=O)N[C@@H](CCC/N=C(\N)N[N+](=O)[O-])C(=O)N[C@@H](CC(C)C)C(N)=O)cc1`, for which the EC50 entry in the assay filed under Rattus norvegicus [1] is listed as “Not Active”.

The molecule `CC(C)C[C@H](NC(=O)[C@H](CCC/N=C(\N)N[N+](=O)[O-])NC(=O)c1ccc(OC(F)(F)F)cc1)C(N)=O` came in with an EC50 in the assay listed under Rattus norvegicus [2] of 20 µM.

As usually defined, the EC50 is the concentration giving half of the maximal effect. Low readings indicate a more potent agent, high ones a less potent agent.
